Values joined by “and” are separate entries in the source; they are usually repeats but may differ in a detail not shown here. Equal values may be shown once.
The molecules below were run on P. falciparum 3D7 growth, pLDH absorbance (assay: P. falciparum 3D7 growth inhibition, dose response, strain 3D7 (AID 2305)).
Molecule O=C(Nc1ccc(-c2cccc(-c3nc4ccccc4[nH]3)c2)cc1)Nc1ccc2c(c1)OCO2 has an IC50 of 250 nM. Cc1cc(N2CCCC2)nc(Nc2ccc(NC(=O)C(C)Oc3ccccc3)cc2)n1 (configuration not stated) showed an IC50 of 1140 nM. Work on COc1ccc(-c2csc(N(CCCN(C)C)C(=O)c3cc4c(C)nn(-c5ccccc5)c4s3)n2)cc1 yielded an IC50 of 620 nM. In the case of Cc1cccc2[nH]c(-c3ccc(-c4cccc(CN5CCN(c6ccncc6)CC5)c4)s3)nc12, the IC50 is reported as 130 nM. For OCCN1CCN(Cc2ccc(-c3ccc(-c4nc5ccc(C(F)(F)F)cc5[nH]4)s3)cc2)CC1, the IC50 was 380 nM. CCOc1cc(C(C)C)ccc1N1CCN(CCCCNC(=O)c2ccc(NC(=O)c3ccc(Cl)cc3)cc2)CC1 gave an IC50 of 420 nM. COc1ccc(C=CC(=O)NC2CCC(CN3CCC(c4c[nH]c5ccccc45)CC3)CC2)cc1 (configuration not stated) was tested, and the IC50 was 780 nM and 810 nM. Work on CCOC(=O)c1ccc(NC(=O)Nc2ccc(-c3cccc(-c4nc5c(C)cccc5[nH]4)c3)cc2)cc1 yielded an IC50 of 140 nM. Work on Cc1[nH]c(C)c(-c2ccc(OCc3cc(F)cc(F)c3)nc2)c(=O)c1Cl yielded an IC50 of 90 nM. Cc1cc(C2CCN(CCCCNC(=O)c3ccc(NC(=O)c4ccc(Cl)cc4)cc3)CC2)c(C)cc1OCCN(C)C gave an IC50 of 770 nM. Work on O=C(NC1CCN(c2ccnc3ccccc23)C1)c1ccc(OC(F)(F)F)cc1 (configuration not stated) yielded an IC50 of 1150 nM. CN1CCN=C1c1ccc(NC(=O)Nc2ccc(C3=NCCN3C)cc2)cc1 gave an IC50 of 380 nM. CCOc1ccc(C(=O)Nc2cc(Br)c3c(c2)CNCC3)cc1Br was tested, and the IC50 was 990 nM. Work on CC(C)(C)c1ccc(CNC(=O)/C=C/c2ccc(-c3nc4ccc(C(C)(C)C)cc4[nH]3)cc2)cc1 yielded an IC50 of 540 nM. With CN1CCN(c2cccc(-c3nnc(-c4ccc(OCC(=O)NCc5ccc(C(F)(F)F)cc5)c([N+](=O)[O-])c4)o3)c2)CC1 the IC50 was 660 nM. COc1ccc(NC(C)C(=O)Nc2ccc(Br)cc2)cc1S(=O)(=O)N1CCCCC1 (configuration not stated) showed an IC50 of 220 nM. With Cc1cc(N[C@@H](Cc2ccccc2)C(=O)Nc2ccccc2)nc(Nc2ccccc2)n1 the IC50 was 1010 nM. For Cc1csc(-c2nc(NCCc3c(C)noc3C)ncc2-c2ccsc2)n1, the IC50 was 180 nM. N[C@@H](CCNC1CCN(c2cccc(C(F)(F)F)c2)CC1)Cc1ccc(F)c(F)c1 gave an IC50 of 1290 nM. COC(=O)c1cc(OC2CCOC2=O)cc2c1OC(C)(C)O2 (configuration not stated) showed an IC50 of 810 nM. Molecule Cc1cccc2[nH]c(-c3ccc(-c4ccc(CN5CCC(C(N)=O)CC5)cc4)s3)nc12 has an IC50 of 910 nM. In the case of Nc1nc(N)c2cc(C#Cc3ccc(-c4ccccc4)cc3)ccc2n1, the IC50 is reported as 810 nM. Molecule CC[C@H]1CN2CC[C@H]1C[C@@H]2[C@@H](O)c1ccnc2ccc(OC)cc12 has an IC50 of 120 nM. CCCCCCOc1ccc(N2C(N)=NC(N)=NC2(C)C)cc1 was tested, and the IC50 was 340 nM. COc1ccc(-c2nc(NC(=O)CS(=O)(=O)c3ccc(C)cc3)sc2C)cc1 gave an IC50 of 400 nM. Cc1cccc2[nH]c(-c3ccc(-c4ccc(NC(=O)Nc5ccc(Cl)c(Cl)c5)cc4)cc3)nc12 showed an IC50 of 830 nM. CC1(C)N=C(N)N=C(N)N1c1cccc(Cl)c1 gave an IC50 of 40 nM. With O=C(Nc1ccc(OC2CCN(Cc3ccco3)CC2)c(Cl)c1)c1ccc2ncccc2c1 the IC50 was 950 nM. Work on CC1(C)N=C(NC(=O)Nc2ccc([N+](=O)[O-])cc2)N=C(N)N1OCc1cccc2ccccc12 yielded an IC50 of 60 nM. Molecule C=CCN1CCC(N(Cc2cccc(Oc3ccccc3)c2)C(=O)C(c2ccccc2)c2ccccc2)CC1 has an IC50 of 1140 nM. Work on COc1ccc(C(=O)[C@H]2C[C@@H]2CN(C)CCC(O)c2ccc(Cl)c(Cl)c2)cc1 (some centres not stated) yielded an IC50 of 870 nM. Work on CC(C)N(CCOc1ccc2c(c1)N(C(=O)Nc1ccc(Cl)c(Cl)c1)CC2)C(C)C yielded an IC50 of 370 nM. O=C(Nc1ccc(S(=O)(=O)N2CCOCC2)cc1)c1cc(-c2cc(Cl)ccc2O)n[nH]1 gave an IC50 of 770 nM. In the case of NC(=O)c1sc(-n2cnc3ccc(OCC4CCNCC4)cc32)cc1OCc1ccccc1C(F)(F)F, the IC50 is reported as 750 nM. Molecule COc1ccc(Cc2cnc3nc(N)nc(N)c3c2C)cc1OC has an IC50 of 10 nM. Molecule COc1ccc(Nc2nc(NN=Cc3ccc(O)cc3)nc(Nc3ccc([N+](=O)[O-])cc3)n2)cc1 has an IC50 of 1120 nM. In the case of O=C(Nc1ccc(-c2cccc(-c3nc4ccc(C(F)(F)F)cc4[nH]3)c2)cc1)c1cccnc1, the IC50 is reported as 720 nM. Fc1cc(Cl)ccc1Nc1ccnc2cc(-c3ccc(CNCCN4CCOCC4)o3)ccc12 gave an IC50 of 280 nM. Work on Cc1ccc(Nc2nc(C)cc(NCc3ccc(-n4ccnc4)cc3)n2)cc1 yielded an IC50 of 1010 nM. In the case of O=C(/C=C/c1cccc(F)c1)NC1CCC(CN2CCC(c3c[nH]c4ccccc34)CC2)CC1 (configuration not stated), the IC50 is reported as 870 nM and 710 nM. Molecule O=C1COc2ccc3ccccc3c21 has an IC50 of 700 nM. Molecule COc1cc(C=CC(=O)N2CCC(CN3CCC(c4c[nH]c5ccccc45)CC3)CC2)cc(OC)c1 has an IC50 of 800 nM. For CC(=O)Nc1cccc(C(=O)Nc2ccc(-c3cccc(-c4nc5ccc(C(F)(F)F)cc5[nH]4)c3)cc2)c1, the IC50 was 150 nM. Molecule Cc1cccc2[nH]c(-c3ccc(-c4cccc(CNCCc5ccncc5)c4)cc3)nc12 has an IC50 of 200 nM. Work on CC1CN(C(=O)c2sc3ccccc3c2Cl)CC(C)O1 (configuration not stated) yielded an IC50 of 90 nM. COc1ccc(Br)cc1/C=C/C(=O)Nc1cccc(C2CCN(C)CC2)c1 showed an IC50 of 520 nM. Work on N#CC1(c2ccccc2)CCN(c2nc(NCCCN3CCCC3=O)nc(N3CCCC4CCCCC43)n2)CC1 (configuration not stated) yielded an IC50 of 860 nM. In the case of Cn1cc(-c2ccnc3[nH]c(-c4cccc(CNC5CCC(O)CC5)c4)cc23)cn1 (configuration not stated), the IC50 is reported as 900 nM. O=S(=O)(c1cccc(C(F)(F)F)c1)N1CCC(CO)(Cc2cccc(C(F)(F)F)c2)CC1 was tested, and the IC50 was 960 nM. COc1ccc(CN(C)CCCc2ccc(NC(=O)c3cc4ccccc4[nH]3)cc2)cc1OC gave an IC50 of 730 nM. In the case of CCOC(=O)CNC(=O)c1cc(=O)c2ccccc2o1, the IC50 is reported as 210 nM. Work on CN(C)C(=S)N=Nc1c(O)[nH]c2ccc(OC(F)(F)F)cc12 yielded an IC50 of 1020 nM. In the case of CCC(C)OC(=O)C1=C(C)NC2=C(C(=O)CC(c3ccc(OC)c(OC)c3)C2)C1c1ccc(O)cc1 (configuration not stated), the IC50 is reported as 220 nM. In the case of Oc1ccc(Nc2nc(N3CCCC3)c3ccccc3n2)cc1, the IC50 is reported as 270 nM. CS(=O)(=O)c1ccc(CCNCc2ccc(-c3cccc(-c4nc5ccccc5[nH]4)c3)cc2)cc1 was tested, and the IC50 was 190 nM. With CCc1cn2c3c(cc(C(=O)N[C@@H](Cc4ccccc4)[C@H](O)CNC(C)(C)CCCC(C)C)cc13)N(C)S(=O)(=O)C2 the IC50 was 240 nM. Molecule COc1cc(C)nc2ccc(NC(=O)COCC(=O)Nc3ccc4nc(C)cc(OC)c4c3)cc12 has an IC50 of 920 nM. With CCC[C@@H]([C@@H](CC1CCCCC1)C(=O)N[C@@H](CCCCNS(C)(=O)=O)C(=O)Nc1nccs1)N(O)C=O the IC50 was 80 nM. Cc1cc(O)c2c(c1)OC(C)(C)C=C2C1=CCN(Cc2ccccc2)CC1 was tested, and the IC50 was 790 nM. Cc1noc(C)c1-c1cccc(CNCc2ccc(-c3ccc(-c4nc5ccc(F)cc5[nH]4)cc3)cc2)c1 was tested, and the IC50 was 210 nM. With CCc1nc(N)nc(N)c1-c1ccc2c(c1)CCCC2 the IC50 was 200 nM. For COc1ccccc1C1CCN(CCN2CCC(NC(=O)c3ccc(-c4ccc(C#N)cc4)cc3)CC2)CC1, the IC50 was 790 nM. CCn1c(-c2nc(-c3ccc4c(c3)OCO4)cnc2N)nc2cnccc21 was tested, and the IC50 was 430 nM. In the case of Cc1ccc(-c2nnc(Nc3ccc(CC(N)=O)cc3)c3ccccc23)cc1S(=O)(=O)NCC1CCCO1 (configuration not stated), the IC50 is reported as 790 nM. Molecule Cc1ccc(CN2CCN(Cc3cccc(NC(=O)c4cccs4)c3)CC2)cc1C has an IC50 of 1030 nM. COc1cccc(-c2csc(C(=O)NCC3CCN(Cc4ccc(C(C)(C)C)cc4)C3)c2)c1 (configuration not stated) showed an IC50 of 1180 nM. Work on C[C@H](Cc1ccc(Oc2ccc(C[C@@H](C)NC[C@H](O)c3cccc(Cl)c3)cc2)cc1)NC[C@H](O)c1cccc(Cl)c1 yielded an IC50 of 560 nM. For COc1ccc(C2CC(=O)C3=C(C2)NC(C)=C(C(=O)OC2CCCC2)C3c2cccc(O)c2)cc1OC (configuration not stated), the IC50 was 220 nM. Work on CN1C[C@@H](c2ccccc2)c2cc(O)c(CN3CCCCC3)cc2C[C@H]1Cc1ccccc1 yielded an IC50 of 180 nM. CCCc1cc(NCc2ccncc2)nc(Nc2ccc(F)cc2)n1 gave an IC50 of 1120 nM. In the case of CCC(ON1C(N)=NC(N)=NC1(C)C)c1ccccc1 (configuration not stated), the IC50 is reported as 30 nM. In the case of COc1cc2nc(NCCN3CCOCC3)n3nc(-c4ccccc4)nc3c2cc1OC, the IC50 is reported as 220 nM. In the case of CCNc1cc(C(=O)N[C@@H](Cc2ccccc2)[C@H](O)CNC(C)(C)CCCC(C)C)c(F)c(N2CCCS2(=O)=O)c1, the IC50 is reported as 200 nM. N#Cc1ccc2c(c1)CCN(CCC1CCC(NC(=O)/C=C/c3cccc4cc[nH]c34)CC1)CC2 (configuration not stated) was tested, and the IC50 was 1090 nM. For O=C(Nc1ccc(S(=O)(=O)N2CCCCC2)cc1)c1cc(-c2ccccc2O)n[nH]1, the IC50 was 850 nM. Work on Cc1cc(N[C@@H](Cc2ccccc2)C(=O)Nc2ccccc2)nc(NCC2CCCCC2)n1 yielded an IC50 of 760 nM. In the case of CS(=O)(=O)CCNCc1nc(-c2ccc3c(Nc4ccc(Cl)cc4F)ccnc3c2)cs1, the IC50 is reported as 1080 nM. CCN(CC)CCN(Cc1ccc(-c2ccc(C(F)(F)F)cc2)cc1)C(=O)Cn1c(CCc2ccc(F)c(F)c2)nc(=O)c2ccccc21 gave an IC50 of 1580 nM. With CC(C)CCn1c(Sc2ccc(C#N)c([N+](=O)[O-])c2)nnc1-c1ccc(N(C)C)cc1 the IC50 was 790 nM. CCn1c(=O)c(C(=O)Nc2cc(Cl)c(OC)cc2OC)nc2ccccc21 showed an IC50 of 240 nM. NCC(NC(=O)c1ccc(-c2c[nH]c3ncccc23)s1)c1ccccc1 (configuration not stated) gave an IC50 of 550 nM. Cc1ccccc1Nc1nc(NCc2ccccc2)nc2ccccc12 gave an IC50 of 1020 nM. Molecule CN1CCCc2ccc(NC(=O)c3ccc(-c4cc(C(F)(F)F)nn4C)s3)cc2C1 has an IC50 of 880 nM. With Clc1cc(Cl)c2cc(CN[C@H]3CCC[C@@H]3CNc3nc4ccccc4[nH]3)[nH]c2c1 the IC50 was 270 nM. O=C(NCCN1CCOCC1)c1csc(C2CCCN(C(=O)c3ccc(O)c(-c4cc(Cl)cc(Cl)c4)c3)C2)n1 (configuration not stated) gave an IC50 of 1030 nM. In the case of c1csc(-c2nc(N3CCCCC3)ncc2-c2ccsc2)n1, the IC50 is reported as 140 nM. COc1ccc(-c2ccc(CNCc3ccsc3)cc2)cc1S(=O)(=O)NCCN1CCCC1 gave an IC50 of 790 nM. Molecule CC(C)C[C@H](NC(=O)c1cc2ccccc2s1)C(=O)N[C@H]1CCN(Cc2ccc(OC[C@@H]3CCCN3C)c3ccccc23)C1 has an IC50 of 1160 nM. Work on COc1ccc2nccc([C@@H](O)CN3CCC(NC(=O)c4ccc(Cl)c([N+](=O)[O-])c4)CC3)c2c1 yielded an IC50 of 950 nM. For COc1ccc2c(c1)ncn2-c1cc(OCc2ccncc2Br)c(C(N)=O)s1, the IC50 was 610 nM. Nc1ccc(Nc2ccnc3ccc(C(F)(F)F)cc23)cc1O was tested, and the IC50 was 720 nM. In the case of CCOc1ccc2nc(C)cc(NN=Cc3cccc(F)c3)c2c1, the IC50 is reported as 740 nM. For COc1ccc(Cc2c(C)nc3nc(N)nc(N)c3c2C)cc1OC, the IC50 was 910 nM. COc1ccccc1N=C1SC(=Cc2cn(CC(=O)N3CCCc4ccccc43)c3ccccc23)C(=O)N1C1CCCCC1 showed an IC50 of 30 nM. Work on CN1CCC(NCc2cccc(-c3nn(C)c4nc(NC5CCCC5)ncc34)c2)CC1 yielded an IC50 of 1020 nM. With CS(=O)(=O)Nc1ccc(-c2ccc3ccnc(N)c3c2)cc1 the IC50 was 610 nM. COc1ccc2ncc(F)c(CCN3C[C@H](CNCc4cc(C#N)c5c(c4)OCCO5)[C@H](O)C3)c2n1 was tested, and the IC50 was 580 nM.
